Among the data in patent publication US7718801B2, “Substituted imidazole derivative” (Banyu Pharmaceutical Co., Ltd., priority 2004, dated 2010) are IC50 and EC50 values, retold here.

Assay [1] concerns the target T1, PLK1-T210D (human active type PLK1) (Homo sapiens, UniProt P53350, T210D).
T1 construct: a baculovirus expressing full-length human PLK1 of which N terminus is fused with GST; GST (glutathione S-transferase) (N); made in house; host or cells: insect cells (baculovirus)
Kind of assay: Measurement of the inhibitory effect against PLK1-T210D activity ([γ-33P]ATP, CDC25C-derived peptide substrate). As to conditions: 50 μM ATP, 50 μM substrate peptide, 25° C., 20 minutes. It is filed as biochemical. How it is done: It has been known that 210th codon of human PLK1 which originally codes for threonine can be changed to an active type by altering the site so as to code aspartic acid [Molecular and Cellular Biology (Mol. Cell. Biol.), 17th edition, 3408 (1997)]. In order to obtain a human active type PLK1 protein, cDNA of mutated PLK1 (PLK1-T210D) of which 210th codon codes aspartic acid was prepared, by substituting a base in the 210th codon of human PLK1 cDNA. This PLK1-T210D cDNA was integrated into a baculovirus expression vector in the same manner as in the above, expressed in insect cells, and then was purified.
For the measurement of the PLK1 and PLK1-T210D activity, used as a substrate was a synthetic peptide (aspartic acid-glutamic acid-leucine-methionine-glutamic acid-alanine-serine-phenylalanine-alanine-aspartic acid-glutamine-aspartic acid-alanine-lysine), where the serine surrounding sequence of the amino acid sequence No. 198 of CDC25C, which have been reported as the site for PLK1 substrate [EMBO Report, 3rd edition, 341 (2002)], is altered.
The reaction was carried out in accordance with the method of Toyoshima-Morimoto et al. [Nature, Vol. 410, 215-220, (2001)]. The volume of the reaction solution was 21.1 μL and the composition of the reaction buffer was 20 mM of tris-hydrochloric acid buffer (pH 7.4)/10 mM magnesium chloride/0.5 mM dithiothreitol/1 mM EGTA (ethylene glycol-bis(beta-aminoethylether)-N,N,N′,N′,-tetraacetic acid). Thereto, purified PLK 1, 50 μM of the substrate peptide, 50 μM of non-labeled adenosine triphosphate (ATP), and 1 μCi of [γ-33P]-labeled ATP (2000 to 4000 Ci/mmole) were added to react at 25° C. for 20 minutes. Then, 10 μL of 350 mM phosphate buffer was added to the reaction system to terminate the reaction. The resultant solution was spotted onto a multi-screen phosphocellulose filter on a 96-well plate. After the phosphocellulose filter is washed with 75 mM phosphate buffer and then dried, the radioactivity of the substrate was measured with a liquid scintillation counter. The non-labeled ATP and [γ-33P]-labeled ATP was purchased from Amersham Bioscience Corp. and the multi-screen phosphocellulose filter from Millipore Corp., respectively.
The addition of the compound of the present invention to the reaction system was carried out by adding 1.1 μL of the solution as prepared by preliminarily dissolving in dimethylsulfoxide at a 20-fold concentration of the final concentration. A control was provided by adding 1.1 μL of dimethylsulfoxide to the reaction system.

The target in the next assay is T2, full-length human PLK1 (Homo sapiens, UniProt P53350).
T2 construct: a baculovirus expressing full-length human PLK1 of which N terminus is fused with GST; GST (glutathione S-transferase) (N, cleaved yes); made in house; host or cells: Spodoptera frugiperda Sf9 insect cells (baculovirus)
Briefly: Measurement of the inhibitory effect against PLK1 activity ([γ-33P]ATP, CDC25C-derived peptide substrate). Conditions: 50 μM ATP, 50 μM substrate peptide, 25° C., 20 minutes. It is filed as biochemical. How it is done: First, a baculovirus expressing full-length human PLK1 of which N terminus is fused with GST (glutathione S-transferase) was prepared, and then the PLK1 infected into a Spodoptera frugiperda (Sf)9 insect cell was highly expressed as a GST-fused protein. The cells were recovered and suspended in a lysis buffer (50 mM tris-hydrochloric acid buffer (pH 7.4)/150 mM sodium chloride/1 mM EDTA (ethylenediamine tetraacetic acid)/1 mM dithiothreitol/0.1% polyoxyethylene sorbitan monolaurate) to break cells with sonicator, and supernatant was recovered after a centrifugation. The supernatant was reacted on glutathione sepharose beads, and then the beads were washed with a lysis buffer. Thereafter, the beads were reacted in a lysis buffer containing Precision Protease to recover supernatant. […]
The reaction was carried out in accordance with the method of Toyoshima-Morimoto et al. [Nature, Vol. 410, 215-220, (2001)]. […] After the phosphocellulose filter is washed with 75 mM phosphate buffer and then dried, the radioactivity of the substrate was measured with a liquid scintillation counter. […]

The subject of the next assay is HeLaS3 cells. Kind of assay: Inhibitory activity against PLK1 at cellular level: ratio of cells arrested at M phase (phospho-histone H3 Ser10, mitotic index). As to conditions: Homo sapiens, HeLa S3; HeLaS3 cells synchronized at G1/S, 12 hours with compound; concentration inducing 50% of maximal M phase arrest; read-out: Inhibitory effect against cell proliferation. It is filed as cell-based. How it is done: For the measurement of the PLK 1 inhibitory effect of the compound at the cellular level, human uterine cervix cell lines HeLaS3 cells were used. The HeLaS3 cell was obtained from American Type Culture Collection (ATTC), and cultured in a CO2-incubator of saturated steam by using Dulbecco's Modified Eagle's Medium containing 10% fetal calf serum at 37° C. in the presence of 5% CO2.
It has been reported that PLK 1 plays an important role in various stages of mitotic phase (M-phase) in mammalian cells (Nature Review Molecular Cell Biology, Vol. 5, 429, (2004)). In fact, when the mammalian cells are treated with PLK 1 siRNA to control the expression level, the cell cycle progression is inhibited and thus the cell is arrested at M phase. Also, when examining the phosphorylation level of serine, 10th residue of histone H3, which is thought to be required for a chromosome condensation in M phase, it is observed that the level is enhanced to a high level. Thus, after treating the cell with the compound according to the present invention; the phosphorylation level of histone H3 was examined by an indirect fluorescent antibody technique, the cells arrested at M phase were identified by using the level thereof as an indicator to analyze the ratio of cells arrested at M phase; and then EC50 value of each compound was calculated to evaluate the PLK 1 inhibitory effect at a cellular level.
First, HeLaS3 cells synchronized at the G1/S phase by a double-thymidine technique were seeded into lysine-treated 96-well plate (Falcon Corp.) at the ratio of 8,000 per one well, and allowed to stand still in the above-mentioned CO2 incubator. […] After terminating the reaction, the reaction solution in wells was removed and replaced with 100 μL of PBS, and then fluorescence images were captured by using InCell Analyzer 1000 (manufactured by GE Amersham) to analyze the ratio of the cells arrested at M phase (Mitotic index) at different view angles. […]

A word on the IC50: it is the concentration at which inhibition is half-maximal. Read a low IC50 as higher potency.

The structures appear in SMILES notation.

T1 sequence (P53350 whole entry T210D, the tested form may be a part): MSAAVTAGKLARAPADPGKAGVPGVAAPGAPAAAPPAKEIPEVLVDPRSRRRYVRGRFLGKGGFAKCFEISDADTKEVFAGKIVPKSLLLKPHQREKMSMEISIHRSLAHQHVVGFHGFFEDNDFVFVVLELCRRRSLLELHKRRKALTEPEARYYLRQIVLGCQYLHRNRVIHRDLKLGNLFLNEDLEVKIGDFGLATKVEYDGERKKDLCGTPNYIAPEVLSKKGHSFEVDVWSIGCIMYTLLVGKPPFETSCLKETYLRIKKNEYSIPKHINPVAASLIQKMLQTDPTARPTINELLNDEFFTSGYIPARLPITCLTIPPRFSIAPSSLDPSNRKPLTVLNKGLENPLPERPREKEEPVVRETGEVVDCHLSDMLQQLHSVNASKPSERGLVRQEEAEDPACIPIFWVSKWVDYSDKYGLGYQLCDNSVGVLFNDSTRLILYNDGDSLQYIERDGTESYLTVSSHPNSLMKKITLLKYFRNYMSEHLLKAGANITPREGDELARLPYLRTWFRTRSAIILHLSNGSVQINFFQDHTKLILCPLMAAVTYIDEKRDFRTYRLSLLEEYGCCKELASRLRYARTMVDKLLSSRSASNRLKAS
T2 sequence (P53350 whole entry, the tested form may be a part): as the sequence (P53350 whole entry T210D, the tested form may be a part) above, with D210T counted along it

On to `Cc1cccn2c(-c3nc(N[C@@H](C)c4ccccc4)ncc3C#N)cnc12` [Example 8, 4-(8-methylimidazo[1,2-a]pyridin-3-yl)-2-{[(1S)-1-phenylethyl]amino}-5-pyrimidinecarbonitrile], for which the figures for the 50% inhibitory concentration (IC50) (in assay [1]; against full-length human PLK1) were 26 nM and 43 nM, respectively.

`C[C@H](Nc1ncc(Br)c(-c2cnc3c(Cl)cccn23)n1)c1ccccc1` [Example 28, 5-bromo-4-(8-chloroimidazo[1,2-a]pyridin-3-yl)-N-[(1S)-1-phenylethyl]-2-pyrimidinamine] came in with a half-inhibitory concentration (IC50) in assay [1] of 42 nM. In other words, the double-digit nanomolar range.

`C[C@H](Nc1ncc(C#N)c(-c2cnc3c(C(F)(F)F)cccn23)n1)c1ccccc1` [Example 36, 2-{[(1S)-1-phenylethyl]amino}-4-[8-(trifluoromethyl)imidazo[1,2-a]pyridin-3-yl]-5-pyrimidinecarbonitrile]: the IC50 in assay [1] came to 16 nM. Also, the EC50 in the assay on HeLaS3 cells stood at 310 nM.

With `Cc1cccn2c(-c3nc(N[C@@H](C)c4ccc(N)cc4)ncc3C#N)cnc12` [Example 112, 2-{[(1S)-1-(4-aminophenyl)ethyl]amino}-4-(8-methylimidazo[1,2-a]pyridin-3-yl)pyrimidine-5-carbonitrile], in assay [1], it took 47 nM to reach half-maximal inhibition (IC50). In the assay on HeLaS3 cells, the EC50 amounted to 340 nM.

`COc1cccn2c(-c3nc(N[C@@H](C)c4ccc(N5CCNCC5)cc4)ncc3C#N)cnc12` [Example 158, 4-(8-methoxyimidazo[1,2-a]pyridin-3-yl)-2-{[(1S)-1-(4-piperazin-1-ylphenyl)ethyl]amino}pyrimidine-5-carbonitrile] showed a concentration for half-maximal inhibition (IC50) in assay [1] of 41 nM. For the same compound, the EC50 in the assay on HeLaS3 cells amounted to 180 nM.
